This note sets out measurements from article PMC6821309, “Optimization of Insect Odorant Receptor Trafficking and Functional Expression Via Transient Transfection in HEK293 Cells” (Chemical Senses, 2019).

For assay [1], the target named is T1, Or47a/Orco heteromer (pDmelOR-R.E.hOr47a; mRho.V5.mER.hOr47a + hOrco) (Drosophila melanogaster, UniProt P81921).
T1 construct: N-terminal myc-tagged codon-optimized Orco, spliced chimeric intron; bidirectional vector, transient HEK293; with Odorant receptor coreceptor
T1 sequence (P81921 1-385): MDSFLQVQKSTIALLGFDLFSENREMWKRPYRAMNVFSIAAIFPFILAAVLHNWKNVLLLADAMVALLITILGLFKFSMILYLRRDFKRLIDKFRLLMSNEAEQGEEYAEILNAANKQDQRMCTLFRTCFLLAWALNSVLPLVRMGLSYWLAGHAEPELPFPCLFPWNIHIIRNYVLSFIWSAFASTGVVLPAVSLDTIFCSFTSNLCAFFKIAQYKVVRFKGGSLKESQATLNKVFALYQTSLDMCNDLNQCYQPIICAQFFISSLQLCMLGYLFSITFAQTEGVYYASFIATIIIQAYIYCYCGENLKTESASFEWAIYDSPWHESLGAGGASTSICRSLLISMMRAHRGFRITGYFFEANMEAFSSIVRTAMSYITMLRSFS
T1 sequence (Q9VNB5 1-486 partner): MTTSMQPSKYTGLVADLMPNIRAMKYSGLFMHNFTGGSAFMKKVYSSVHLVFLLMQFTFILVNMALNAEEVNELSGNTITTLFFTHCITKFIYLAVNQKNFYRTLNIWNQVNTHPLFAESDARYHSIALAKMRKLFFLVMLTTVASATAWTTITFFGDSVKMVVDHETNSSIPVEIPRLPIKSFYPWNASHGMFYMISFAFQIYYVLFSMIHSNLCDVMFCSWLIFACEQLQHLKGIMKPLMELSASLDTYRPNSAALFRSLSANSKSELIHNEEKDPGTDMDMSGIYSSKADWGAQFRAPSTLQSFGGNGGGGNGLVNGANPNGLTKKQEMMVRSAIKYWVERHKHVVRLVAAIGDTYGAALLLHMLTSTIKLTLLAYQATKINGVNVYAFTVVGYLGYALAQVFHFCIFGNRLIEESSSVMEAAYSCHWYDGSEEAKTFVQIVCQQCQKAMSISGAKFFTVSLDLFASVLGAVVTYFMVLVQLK
Description: Fura-2 calcium imaging, automated platform, response normalized to VUAA1. The class given is cell-based. The settings on record: agonist; 1 mM CaCl2, pH 7.4; 3-parameter logistic fit; transient HEK293. From the text:
Fura-2 calcium imaging, automated platform, response normalized to VUAA1 on Or47a/Orco heteromer (pDmelOR-R.E.hOr47a; mRho.V5.mER.hOr47a + hOrco) | transfected with pDmelOR-R.E.hOr47a and stimulated with pentyl acetate (d)

The target of assay [2] is T2, Or56a/Orco (pDmelOR-R.E.hOr56a; mRho.V5.mER.hOr56a + hOrco) (Drosophila melanogaster, UniProt Q9V8Y7).
T2 construct: human codon-optimized Or56a with N-terminal mRho.V5.mER tag; N-terminal myc-tagged codon-optimized Orco, spliced chimeric intron; bidirectional vector, transient HEK293; with Odorant receptor coreceptor
T2 sequence (Q9V8Y7 1-419): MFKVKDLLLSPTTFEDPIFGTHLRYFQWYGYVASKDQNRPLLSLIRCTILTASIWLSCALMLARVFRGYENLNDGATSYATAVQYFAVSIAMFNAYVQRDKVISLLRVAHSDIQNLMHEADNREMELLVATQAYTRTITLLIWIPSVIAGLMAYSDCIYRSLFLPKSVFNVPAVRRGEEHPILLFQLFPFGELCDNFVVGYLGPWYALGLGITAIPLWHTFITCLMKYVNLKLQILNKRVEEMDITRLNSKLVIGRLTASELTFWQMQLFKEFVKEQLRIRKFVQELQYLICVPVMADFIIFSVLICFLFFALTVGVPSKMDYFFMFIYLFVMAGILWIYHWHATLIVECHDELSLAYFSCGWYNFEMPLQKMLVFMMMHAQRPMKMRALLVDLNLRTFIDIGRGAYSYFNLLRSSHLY
T2 sequence (Q9VNB5 1-486 partner): T1 sequence (Q9VNB5 1-486 partner)
The description is as above. The format is cell-based. As to conditions: agonist; 1 mM CaCl2, pH 7.4; 3-parameter logistic fit; transient HEK293. From the text: Fura-2 calcium imaging, automated platform, response normalized to VUAA1 on Or56a/Orco (pDmelOR-R.E.hOr56a; mRho.V5.mER.hOr56a + hOrco) | or with pDmelOR-R.E.hOr56a and stimulated with geosmin (e)

On to `CCCCCOC(C)=O` [pentyl acetate], for which the EC50 in assay [1] is 2.45·10^–5 (1.83 × 10^–5; 3.29 × 10^–5) M.
For the compound `CC1CCCC2(C)CCCCC12O` (racemic) [geosmin], the EC50 in assay [2] is on record as 7.19·10^–7 (3.97 × 10^–7; 1.30 × 10^–6) M.
